Measured values from BindingDB's records for patent US20240189315 (Boehringer Ingelheim International, 2024).

Each compound was assayed against Cyclic GMP-AMP synthase (Homo sapiens, UniProt Q8N884) (assay: in vitro human biochemical cGAS inhibition).
Sequence of Cyclic GMP-AMP synthase (Q8N884 whole entry): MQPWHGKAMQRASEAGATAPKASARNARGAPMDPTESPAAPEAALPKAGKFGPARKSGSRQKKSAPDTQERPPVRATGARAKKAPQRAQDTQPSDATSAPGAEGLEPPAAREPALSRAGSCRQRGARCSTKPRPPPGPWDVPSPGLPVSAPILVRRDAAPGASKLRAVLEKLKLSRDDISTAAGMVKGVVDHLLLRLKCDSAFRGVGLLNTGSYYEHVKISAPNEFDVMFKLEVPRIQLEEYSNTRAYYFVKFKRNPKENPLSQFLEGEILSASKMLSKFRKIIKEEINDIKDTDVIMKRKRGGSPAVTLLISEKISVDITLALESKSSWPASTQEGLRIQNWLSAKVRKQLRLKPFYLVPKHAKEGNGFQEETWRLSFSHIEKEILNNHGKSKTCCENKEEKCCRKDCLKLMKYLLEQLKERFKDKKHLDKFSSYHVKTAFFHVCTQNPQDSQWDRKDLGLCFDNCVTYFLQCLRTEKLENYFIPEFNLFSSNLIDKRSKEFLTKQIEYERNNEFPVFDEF

Compound | IC50
COC(=O)[C@@H]1C[C@H](Oc2ncc(Cl)cc2[C@@]2(F)CCS(=O)(=O)C[C@@H]2C)CN1c1nc(C(F)F)nc2c1oc1ccccc12 [US12043625, Example P02 (prodrug of Ex. 1.13)] | > 9.95 µM
C[C@H]1CN2CC[C@]1(F)c1cc(Cl)cnc1O[C@H]1C[C@@H](C(=O)O)N(C1)c1nc(nc3c1oc1ccccc13)CCCCOC2=O [US20240189315, Example 35] | 0.027 µM

Second part, the compound after the results:

IC50 | Compound
> 9.95 µM | COC(=O)[C@@H]1C[C@H](Oc2ncc(-c3cccnc3OC)cc2N2CCOC3(COC3)[C@@H]2C)CN1c1nc(C(F)(F)F)nc2c1oc1ccccc12 [US20240189315, Example P04 of PCT/EP2022/062480) (Prodrug of Ex. 3.14 of PCT/EP2022/062480)]
> 9.96 µM | COC(=O)[C@@H]1C[C@H](Oc2ncccc2N2CCOC3(COC3)[C@@H]2C)CN1c1nc(C(F)F)nc2c1oc1ccccc12 [US20240189315, Example P01 of PCT/EP2022/062480) (Prodrug of Ex. 4.04 of PCT/EP-2022/062480)]
> 9.95 µM | COC(=O)[C@@H]1C[C@H](Oc2ncc(Br)cc2N2CCOC3(COC3)[C@@H]2C)CN1c1nc(C(F)(F)F)nc2c1oc1ccccc12 [US20240189315, Example P02 of PCT/EP2022/062480) (Prodrug of Ex. 1.10 of PCT/EP2022/062480)]
